Assay results published in US12011442B2, “Solid-state forms of Abemaciclib, their use and preparation” (MACFARLAN SMITH LIMITED, priority 2018, dated 2024).

What was measured:
Assay type in all cases: physicochemical
[1] = Solid-state stability of the crystalline solvate (observation); details: desolvates on exposure to air
Protocol: A variable methanol solvate of ABC is produced by dissolving ABC in warm (55° C.) methanol (about 200 mg/mL) and then cooling (−5° C.) to force precipitation of a white powder. The resulting powder is examined by XRPD while still wet (FIG. 1, top pattern). Single crystals are grown by slow evaporation of methanol into an antisolvent (preferably ethyl acetate) or by slowly cooling a saturated solution from 50° C. to 0° C. over the course of several hours, and not exposed to air, to obviate evaporation of the solvate and the collapse of the crystalline lattice. Single crystal X-ray diffraction (SCXRD) data is undertaken at 100° K to improve diffraction quality as well as prevent desolvation. […] The single crystal is determined to be Form I of variable methanol solvate of ABC (FIG. 2) having about 2.5-3 molecules of methanol, preferably about 2.75 molecules of methanol. Form I of variable methanol solvate of ABC is unstable.

[2] = Dynamic vapor sorption (DVS) / sorption isotherm
[3] = Thermogravimetric analysis (TGA), onset of decomposition; details: heating rate 10.0° C./min, nitrogen; FIG. 6
Protocol: Analysis—TGA (Thermo Gravimetric Analysis) TGA measurements are recorded using TA Q500 instrument. The samples are weighed in aluminum pans. TGA investigations are performed at a heating rate of 10.0° C./min over a temperature range of 30-350° C., purging with nitrogen at a flow rate of 60 mL/min.

Compound	stability of the solid-state form [1]	H2O absorbed by weight (DVS) ([2]; between 0-90% relative humidity (RH), FIG. 7)	drop in weight during desorption ([2]; desorption at 20% RH, consistent with loss of a molecule of water)	H2O lost in one desorption step (sorption isotherm) ([2]; desorption between 30-20% RH, FIG. 8)	transformation from Form II anhydrous ABC to Form III of hydrate of ABC ([2]; humidity sorption/desorption)	onset of decomposition (TGA) [3]
CCN1CCN(Cc2ccc(Nc3ncc(F)c(-c4cc(F)c5nc(C)n(C(C)C)c5c4)n3)nc2)CC1	unstable	–	–	–	–	–
CCN1CCN(Cc2ccc(Nc3ncc(F)c(-c4cc(F)c5nc(C)n(C(C)C)c5c4)n3)nc2)CC1 [Form II anhydrous ABC]	–	about 8%	about 4%	4%	reversible	about 320 °C
